Data taken from ChEMBL document CHEMBL1201862, “PubChem BioAssay data set” (2004).
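Five concentrations, 48 hours, 96-well plates. GI50 marks 50% less growth.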 Activity calls are given as the source filed them. Cut-off read from the data, not from the text of the source: active = GI50 up to about 1.1 µM and inactive = higher.

Columns and labels:
Assay in all cases: NCI-60 cell line screen, 48 h
A498 = test system: A498
HL-60 = test system: HL-60
HOP-92 = test system: HOP-92
KM12 = test system: KM12
NCI-H522 = test system: NCI-H522
OVCAR-4 = test system: OVCAR-4
RPMI-8226 = test system: RPMI-8226
SF-268 = test system: SF-268
SK-OV-3 = test system: SK-OV-3
SN12C = test system: SN12C
SNB-19 = test system: SNB-19
SR = test system: SR
U-251 = test system: U-251
UACC-62 = test system: UACC-62
EKVX = test system: EKVX
PC-3 = test system: PC-3
RXF 393 = test system: RXF 393
MCF7 = test system: MCF7
MDA-N = test system: MDA-N
MDA-MB-435 = test system: MDA-MB-435

Structure (SMILES) | GI50 (A498) | GI50 (HL-60) | GI50 (HOP-92) | GI50 (KM12) | GI50 (NCI-H522) | GI50 (OVCAR-4) | GI50 (RPMI-8226) | GI50 (SF-268) | GI50 (SK-OV-3) | GI50 (SN12C) | GI50 (SNB-19) | GI50 (SR) | GI50 (U-251) | GI50 (UACC-62) | GI50 (EKVX) | GI50 (PC-3) | GI50 (RXF 393) | GI50 (MCF7) | GI50 (MDA-N) | GI50 (MDA-MB-435)
CN(C)CCNc1ccc2ncn3c4ccccc4c(=O)c1c23 | 6.93 µM (inactive) | 7.73 µM (inactive) | 2.3 µM (inactive) | 2.44 µM (inactive) | 1.29 µM (inactive) | 1.99 µM (inactive) | 2.84 µM (inactive) | 1.91 µM (inactive) | 2.09 µM (inactive) | 2.9 µM (inactive) | 7.96 µM (inactive) | 0.822 µM (active) | 3.02 µM (inactive) | 3.22 µM (inactive) |  |  |  |  |  | 
CCOC(=O)CCC(NC(=O)c1ccc(/N=C/c2nc3cc(C(F)(F)F)ccc3nc2-c2ccccc2)cc1)C(=O)OCC (configuration not stated) | 23.4 µM (inactive) | 8.91 µM (inactive) | 4.88 µM (inactive) | 18.3 µM (inactive) | 12.3 µM (inactive) | 11.5 µM (inactive) | > 50 µM (inactive) | 8.34 µM (inactive) | 8.77 µM (inactive) | > 50 µM (inactive) | 10.6 µM (inactive) | > 50 µM (inactive) | 6.07 µM (inactive) | 12.2 µM (inactive) | 28.9 µM (inactive) | > 50 µM (inactive) | 7.14 µM (inactive) |  |  | 
C[N+]1=C(c2cccnc2/C=N/O)OCC1(C)C | > 100 µM (inactive) | > 100 µM (inactive) | > 100 µM (inactive) | > 100 µM (inactive) | > 100 µM (inactive) | > 100 µM (inactive) |  | > 100 µM (inactive) | > 100 µM (inactive) | > 100 µM (inactive) | > 100 µM (inactive) | > 100 µM (inactive) | > 100 µM (inactive) | > 100 µM (inactive) | > 100 µM (inactive) |  | > 100 µM (inactive) |  |  | 
COC(=O)c1c/c(=N\NC(=O)CC(=O)Nc2ccccc2OC)c2ccccc2o1 | > 100 µM (inactive) | > 100 µM (inactive) |  | > 100 µM (inactive) | > 100 µM (inactive) | > 100 µM (inactive) | > 100 µM (inactive) | > 100 µM (inactive) | > 100 µM (inactive) | > 100 µM (inactive) | > 100 µM (inactive) | > 100 µM (inactive) | > 100 µM (inactive) | > 100 µM (inactive) | > 100 µM (inactive) |  |  |  |  | 
O=C(CN(c1ccccc1)c1ccccc1)N1c2ccccc2C2C=CC=CC21 (configuration not stated) | 32.4 µM (inactive) | 7.23 µM (inactive) |  | 27.3 µM (inactive) | 18 µM (inactive) | 11.1 µM (inactive) | 8.22 µM (inactive) | 26.5 µM (inactive) | 23.6 µM (inactive) | 8.34 µM (inactive) | 17.5 µM (inactive) | 0.579 µM (active) | 21.3 µM (inactive) | 21.1 µM (inactive) | 24.3 µM (inactive) |  | 30.5 µM (inactive) |  |  | 
O=C1CC(c2ccc(Cl)cc2)=Nc2ccccc2N1 | 79.6 µM (inactive) | 19.3 µM (inactive) | 26.4 µM (inactive) | > 100 µM (inactive) | 40.9 µM (inactive) | 28.6 µM (inactive) |  | > 100 µM (inactive) | 32.7 µM (inactive) | 46.7 µM (inactive) | 51.6 µM (inactive) | 37.8 µM (inactive) | 20.7 µM (inactive) | > 100 µM (inactive) | 47.3 µM (inactive) |  | 29.9 µM (inactive) |  |  | 
CNC(=S)N/N=C(C)\C(=N/NC(=S)NC)c1ccccc1 |  |  |  | 64.9 µM (inactive) | 28.9 µM (inactive) |  |  | 74.8 µM (inactive) | > 100 µM (inactive) |  | 70.3 µM (inactive) |  |  | > 100 µM (inactive) | 38 µM (inactive) | 30.9 µM (inactive) | 56.8 µM (inactive) | 82.8 µM (inactive) | 89.7 µM (inactive) | 
C/C(=N\Nc1ccc([N+](=O)[O-])cc1)C(=O)N(C)Nc1ccccc1 | 29 µM (inactive) | 65.3 µM (inactive) | 53.7 µM (inactive) | 24 µM (inactive) | 52.8 µM (inactive) | 47.2 µM (inactive) | 76 µM (inactive) |  | > 100 µM (inactive) | 74 µM (inactive) | > 100 µM (inactive) | 47.8 µM (inactive) | 62.1 µM (inactive) | 45.2 µM (inactive) | 34.5 µM (inactive) |  | 58.1 µM (inactive) |  |  | 
CCOC(=O)c1nnsc1NC(=O)Nc1ccc(Cl)cc1 |  |  |  | 51.6 µM (inactive) | 15.8 µM (inactive) | 21.1 µM (inactive) | 44.5 µM (inactive) | 57.5 µM (inactive) |  | 35.2 µM (inactive) | > 100 µM (inactive) |  | > 100 µM (inactive) | 71 µM (inactive) | 42 µM (inactive) | 33 µM (inactive) | > 100 µM (inactive) |  | 32.8 µM (inactive) | > 100 µM (inactive)
O=C1CC(=O)c2c(Cl)sc(Cl)c21 | > 100 µM (inactive) | 30.3 µM (inactive) | > 100 µM (inactive) | > 100 µM (inactive) | 23.8 µM (inactive) | 29.2 µM (inactive) |  | 64.7 µM (inactive) | > 100 µM (inactive) | > 100 µM (inactive) |  | 25.6 µM (inactive) | > 100 µM (inactive) | 92.3 µM (inactive) | > 100 µM (inactive) |  | 16.1 µM (inactive) | 45.5 µM (inactive) | > 100 µM (inactive) | 64.1 µM (inactive)
N#CC(C(=O)CCC(=O)C(C#N)c1ccccc1)c1ccccc1 (configuration not stated) | > 100 µM (inactive) | > 100 µM (inactive) | > 100 µM (inactive) | > 100 µM (inactive) | > 100 µM (inactive) | > 100 µM (inactive) | > 100 µM (inactive) | > 100 µM (inactive) | > 100 µM (inactive) | > 100 µM (inactive) | > 100 µM (inactive) | > 100 µM (inactive) | > 100 µM (inactive) | > 100 µM (inactive) | > 100 µM (inactive) |  | > 100 µM (inactive) |  |  | 
O=C1C=C(NCCc2ccc(O)cc2)C(=O)C=C1NCCc1ccc(O)cc1 | > 100 µM (inactive) | 19.2 µM (inactive) | 71.1 µM (inactive) | > 100 µM (inactive) | > 100 µM (inactive) | > 100 µM (inactive) | > 100 µM (inactive) | > 100 µM (inactive) | 54.3 µM (inactive) | > 100 µM (inactive) | > 100 µM (inactive) | > 100 µM (inactive) | 32.2 µM (inactive) | > 100 µM (inactive) | > 100 µM (inactive) | > 100 µM (inactive) | > 100 µM (inactive) | > 100 µM (inactive) |  | 49.1 µM (inactive)
Cc1cccc(C)c1NC(=O)CCC(=O)NNc1nnc(C)n1N | 53.3 µM (inactive) | > 100 µM (inactive) | > 100 µM (inactive) | > 100 µM (inactive) | > 100 µM (inactive) | > 100 µM (inactive) | > 100 µM (inactive) | > 100 µM (inactive) | > 100 µM (inactive) | > 100 µM (inactive) | > 100 µM (inactive) | > 100 µM (inactive) | > 100 µM (inactive) | > 100 µM (inactive) | > 100 µM (inactive) |  | > 100 µM (inactive) |  |  | 
CCOC(=O)c1cc(-c2cc(OC)c(OC)c([N+](=O)[O-])c2)c([N+](=O)[O-])n1C |  | 3.37 µM (inactive) | > 10 µM (inactive) | 4 µM (inactive) | 4.13 µM (inactive) | > 10 µM (inactive) |  | > 10 µM (inactive) |  | 6.7 µM (inactive) | > 10 µM (inactive) | 4.81 µM (inactive) | 4.26 µM (inactive) | 3.53 µM (inactive) | > 10 µM (inactive) |  | 9.59 µM (inactive) |  |  | 2.04 µM (inactive)
COC(=O)C(Cc1nc2ccccc2nc1O)C(NO)C(=O)Nc1c(Cl)cc([N+](=O)[O-])cc1Cl (configuration not stated) | 21.4 µM (inactive) |  | 5.56 µM (inactive) | 33.7 µM (inactive) | 15.5 µM (inactive) | 38.5 µM (inactive) | 34.7 µM (inactive) | 32.8 µM (inactive) | 37.9 µM (inactive) | 45.3 µM (inactive) | 40.1 µM (inactive) | 31.3 µM (inactive) | 31.3 µM (inactive) | 18 µM (inactive) | 27.7 µM (inactive) |  | 16.5 µM (inactive) |  |  | 
CC1CC2C3CC(F)C4=CC(=O)C=CC4(C)C3(F)C(O)CC2(C)C1(O)C(=O)CO (configuration not stated) |  | > 100 µM (inactive) | > 100 µM (inactive) | > 100 µM (inactive) | > 100 µM (inactive) | > 100 µM (inactive) | > 100 µM (inactive) | > 100 µM (inactive) | < 0.01 µM (active) |  | > 100 µM (inactive) | > 100 µM (inactive) | > 100 µM (inactive) | > 100 µM (inactive) | > 100 µM (inactive) |  | > 100 µM (inactive) |  |  | 
O=S(=O)(O)SC/C=C\CSS(=O)(=O)O | > 100 µM (inactive) | > 100 µM (inactive) | > 100 µM (inactive) | 21.4 µM (inactive) | > 100 µM (inactive) | > 100 µM (inactive) | > 100 µM (inactive) | 48.9 µM (inactive) | 57.8 µM (inactive) | > 100 µM (inactive) | 42.4 µM (inactive) | > 100 µM (inactive) | 31.5 µM (inactive) | > 100 µM (inactive) | > 100 µM (inactive) |  | > 100 µM (inactive) |  |  | 
CC1CC[C@]2(C(=O)O)CCC3(COC(=O)/C=C\c4ccc(O)cc4)C(=CCC4[C@@]5(C)CC[C@H](O)C(C)(C)C5CC[C@]43C)[C@@H]2[C@H]1C (some centres not stated) | 27 µM (inactive) | 26.2 µM (inactive) |  | 7.21 µM (inactive) | 17.5 µM (inactive) | 39.3 µM (inactive) | 22.3 µM (inactive) | 14.7 µM (inactive) | 3.5 µM (inactive) | 20.8 µM (inactive) | 12.3 µM (inactive) | 20.6 µM (inactive) | 9.79 µM (inactive) | 17.2 µM (inactive) | 16.7 µM (inactive) |  | 17.5 µM (inactive) |  |  | 
